ChEMBL document CHEMBL5500406, “Discovery of Novel Proteolysis-Targeting Chimera Molecules as Degraders of Programmed Cell Death-Ligand 1 for Breast Cancer Therapy” (J Med Chem, 2024)
Calls of active or inactive are those of the source. The calls are words filed in the database; no cut-off is given here.

Target: Protein cereblon/Programmed cell death 1 ligand 1 (Mus musculus) (UniProt Q9EP73+Q8C7D2)
Test: PROTAC activity at CRBN/PD-L1 in mouse 4T1 cells assessed as protein degradation at 1.25 to 20 uM incubated for 24 hrs by Western blot analysis
Assay type: cell-based
Details: dose 1.25-20 µM

Chain of Protein cereblon/Programmed cell death 1 ligand 1 (Mus musculus) (Q8C7D2 whole entry partner): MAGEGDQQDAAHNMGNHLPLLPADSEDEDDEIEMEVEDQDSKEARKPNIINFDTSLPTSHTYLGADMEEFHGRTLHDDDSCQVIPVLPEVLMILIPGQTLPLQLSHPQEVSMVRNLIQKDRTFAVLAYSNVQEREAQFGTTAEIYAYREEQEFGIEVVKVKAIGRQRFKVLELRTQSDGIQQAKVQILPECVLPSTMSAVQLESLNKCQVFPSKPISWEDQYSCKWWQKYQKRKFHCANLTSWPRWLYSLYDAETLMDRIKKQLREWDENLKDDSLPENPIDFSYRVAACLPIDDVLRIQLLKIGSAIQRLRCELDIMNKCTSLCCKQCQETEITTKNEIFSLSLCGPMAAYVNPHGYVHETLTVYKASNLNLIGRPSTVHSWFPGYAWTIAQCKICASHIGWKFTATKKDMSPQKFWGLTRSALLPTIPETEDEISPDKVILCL
Chain of Protein cereblon/Programmed cell death 1 ligand 1 (Mus musculus) (Q9EP73 19-290 limits assumed): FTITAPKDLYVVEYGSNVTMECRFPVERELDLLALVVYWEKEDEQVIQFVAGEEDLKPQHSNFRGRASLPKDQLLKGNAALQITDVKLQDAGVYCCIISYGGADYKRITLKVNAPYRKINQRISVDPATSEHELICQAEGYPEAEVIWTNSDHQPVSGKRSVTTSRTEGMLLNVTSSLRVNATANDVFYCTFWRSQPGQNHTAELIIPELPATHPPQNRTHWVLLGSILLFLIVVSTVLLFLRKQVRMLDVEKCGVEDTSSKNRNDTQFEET

Compound	Activity
COc1nc(OCc2cccc(-c3ccccc3)c2C)ccc1CNCCNC(=O)CCCCCCNC(=O)COc1ccc(C2CCC(=O)NC2=O)cc1 (configuration not stated)	Active
COc1nc(OCc2cccc(-c3ccccc3)c2C)ccc1CNCCNC(=O)CCCCCCCNC(=O)COc1ccc(C2CCC(=O)NC2=O)cc1 (configuration not stated)	Active
